In US6656694B2, “Method for identifying a ligand for a biological substrate” (Theravance, Inc., priority 2001, dated 2003):

How the values were obtained:
[1] = target: T1, human cloned muscarinic receptor (M2), second binding site (Homo sapiens, UniProt P08172); experiment: Screening of candidate compounds: effect on 3H-NMS binding in the presence of multibinding Compound A; settings: candidate 500 nM; Compound A 200 nM; 3H-NMS 10 nM; PBS pH 7.4; CHO membranes; 1 hour at 37° C.; B and C relative to each other
T1 sequence (P08172 1-466): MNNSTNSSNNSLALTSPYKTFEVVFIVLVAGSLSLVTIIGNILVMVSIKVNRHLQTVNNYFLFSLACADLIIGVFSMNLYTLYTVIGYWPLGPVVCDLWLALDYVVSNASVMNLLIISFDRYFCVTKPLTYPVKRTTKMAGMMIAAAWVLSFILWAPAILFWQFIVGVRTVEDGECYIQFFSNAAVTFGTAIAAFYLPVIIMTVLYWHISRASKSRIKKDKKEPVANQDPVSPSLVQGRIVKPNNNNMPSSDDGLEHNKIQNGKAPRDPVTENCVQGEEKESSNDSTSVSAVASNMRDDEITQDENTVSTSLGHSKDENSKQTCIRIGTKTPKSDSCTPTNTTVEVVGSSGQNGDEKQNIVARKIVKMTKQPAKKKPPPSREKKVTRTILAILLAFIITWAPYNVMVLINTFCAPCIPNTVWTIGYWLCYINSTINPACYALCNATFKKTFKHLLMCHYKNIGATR
Procedure: Into each well in a 96 well place, the following are added:
a) Compound A, such that the final concentration in the well is 200 nM (10 times the Kd of Compound A) in phosphate buffered saline at pH 7.4;
b) tritiated N-methyl scopalamine (^3H-NMS), such that the final concentration in each well is 10 nM (0.5 times the Kd of ^3H-NMS);
c) a candidate compound at a final concentration of 500 nM, the candidate compound being selected from amines including Compound B and Compound C (which are commercially available); [drawing 5]
(§1) d) membrane containing human cloned muscarinic receptor (prepared by expressing M2 coding plasmid in CHO cells using well-known procedures and reagents).
(§2) The 96 well plate is then incubated for 1 hour at 37° C. After incubation, the membranes are filtered to separate bound from unbound ^3H-NMS. Scintillant is then added, and the plate is placed in a counter to measure the radioactivity in each well.
The amount of radioactivity determined for each well is then compared to a pre-determined amount of radioactivity measured using the above procedure in the absence of a candidate compound. […]

[2] = target: T2, human cloned muscarinic receptor (M2) (Homo sapiens, UniProt P08172); experiment: Binding of Compound D to the receptor measured using 3H-NMS; settings: stated more potent than Compound A
T2 sequence (P08172 1-466): T1 sequence (P08172 1-466)
Procedure: as §1, §2
The binding of Compound D to the receptor is then measured using ^3H-NMS.

Row | Compound | binding to the receptor (radioactivity of bound 3H-NMS observed) [1] | Kd [2] [nM]
1 | CNC1CCN(Cc2c(OC)cccc2OC)CC1 [Compound C] | bind strongly | –
2 | O=C(Nc1ccc2ccccc2c1)C1CC(O)CN1 (stereo not drawn) [Compound B] | bind weakly | –
3 | COc1cccc(OC)c1CN1CCC(N(C)CCCCCCCN2CCC(OC(=O)Nc3ccccc3-c3ccccc3)CC2)CC1 [Compound D] | – | 2
